Measured values taken from patent US10729684B2, “Alkynyl dihydroquinoline sulfonamide compounds” (AMGEN INC., priority 2015, dated 2020).

What was measured:
[1] = molecular target: hNav1.7 (Homo sapiens (Human), UniProt Q15858); assay: Nav 1.7 IWQ in vitro assay (IonWorks Quattro population patch-clamp); assay type: cell-based; conditions: HEK 293 cells stably transfected with Nav 1.7
Experimental: Nav 1.7 or Nav 1.5 IWQ In Vitro Assay
HEK 293 Cells stably transfected with either Nav 1.7 or Nav 1.5 were recorded in population patch-clamp mode with the IonWorks® Quattro automated electrophysiology system in accordance with the manufacturer's specifications (Molecular Devices, LLC, Sunnyvale, Calif.). Sodium channel currents were measured in response to a train of depolarizations that induced successively greater inactivation.
Cells were held at −110 mV for three seconds (Nav 1.7) or half a second (Nav 1.5) from a holding voltage of −15 mV, then put through a series of 26 pulses of 150 msec duration to −20 mV at a frequency of 5 Hz. Cells were then left unclamped for a period of 3 to 8 minutes while a single concentration of test compound was added. Cells were then reclamped and put through the same voltage protocol. Current at the end of the 26th pulse to −20 mV was subtracted from the peak current evoked by the 26th pulse to −20 mV to correct for leak current. Percent block was calculated for each concentration in duplicate, and IC50 curves were fitted to percent block as a function of concentration.

[2] = molecular target: human Nav1.7 (Homo sapiens (Human), UniProt Q15858); assay: Nav 1.7 in vitro PX assay (PatchXpress whole cell voltage clamp); assay type: cell-based; conditions: HEK 293 cells stably transfected with human Nav1.7, partially inactivated state, read-out: hNav1.7 PX IC50
Experimental: Nav 1.7 In Vitro PX Assay
HEK 293 cells stably transfected with human Nav1.7 were recorded in whole cell voltage clamp mode with the PatchXpress automated electrophysiology system (Molecular Devices, LLC, Sunnyvale, Calif.). Compound effects were measured on a partially inactivated state of the sodium channel. Cells were clamped to a holding potential yielding 20 to 50% inactivation. To elicit sodium current, channels were activated by pulsing to −10 mV for 20 msec. This voltage protocol was repeated at a rate of 0.1 Hz throughout the experiment. A single concentration of test compound was applied to cells for a duration of 3 minutes. Peak sodium current was measured at the end of the compound addition period to determine percent inhibition. Three to five cells were tested per concentration, and IC50 curves were fitted to percent inhibition as a function of concentration.

[3] = RLM in vitro; conditions: b278 calls it HLM data in vitro
[4] = molecular target: human PXR (Homo sapiens (Human), UniProt O75469); assay: human PXR @ 2 uM POC
human PXR, sequence (O75469 whole entry): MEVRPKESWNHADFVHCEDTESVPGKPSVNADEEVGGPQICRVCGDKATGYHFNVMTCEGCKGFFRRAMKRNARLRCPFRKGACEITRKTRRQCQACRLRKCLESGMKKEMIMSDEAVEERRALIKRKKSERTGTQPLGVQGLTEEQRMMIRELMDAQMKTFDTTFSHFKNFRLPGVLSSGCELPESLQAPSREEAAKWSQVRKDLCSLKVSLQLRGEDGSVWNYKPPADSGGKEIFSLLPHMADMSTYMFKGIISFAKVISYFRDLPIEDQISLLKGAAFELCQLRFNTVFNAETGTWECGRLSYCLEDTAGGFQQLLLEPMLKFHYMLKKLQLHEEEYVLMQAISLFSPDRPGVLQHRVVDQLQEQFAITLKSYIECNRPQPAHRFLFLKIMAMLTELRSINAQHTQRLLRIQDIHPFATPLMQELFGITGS

hNav1.7, sequence (Q15858 whole entry): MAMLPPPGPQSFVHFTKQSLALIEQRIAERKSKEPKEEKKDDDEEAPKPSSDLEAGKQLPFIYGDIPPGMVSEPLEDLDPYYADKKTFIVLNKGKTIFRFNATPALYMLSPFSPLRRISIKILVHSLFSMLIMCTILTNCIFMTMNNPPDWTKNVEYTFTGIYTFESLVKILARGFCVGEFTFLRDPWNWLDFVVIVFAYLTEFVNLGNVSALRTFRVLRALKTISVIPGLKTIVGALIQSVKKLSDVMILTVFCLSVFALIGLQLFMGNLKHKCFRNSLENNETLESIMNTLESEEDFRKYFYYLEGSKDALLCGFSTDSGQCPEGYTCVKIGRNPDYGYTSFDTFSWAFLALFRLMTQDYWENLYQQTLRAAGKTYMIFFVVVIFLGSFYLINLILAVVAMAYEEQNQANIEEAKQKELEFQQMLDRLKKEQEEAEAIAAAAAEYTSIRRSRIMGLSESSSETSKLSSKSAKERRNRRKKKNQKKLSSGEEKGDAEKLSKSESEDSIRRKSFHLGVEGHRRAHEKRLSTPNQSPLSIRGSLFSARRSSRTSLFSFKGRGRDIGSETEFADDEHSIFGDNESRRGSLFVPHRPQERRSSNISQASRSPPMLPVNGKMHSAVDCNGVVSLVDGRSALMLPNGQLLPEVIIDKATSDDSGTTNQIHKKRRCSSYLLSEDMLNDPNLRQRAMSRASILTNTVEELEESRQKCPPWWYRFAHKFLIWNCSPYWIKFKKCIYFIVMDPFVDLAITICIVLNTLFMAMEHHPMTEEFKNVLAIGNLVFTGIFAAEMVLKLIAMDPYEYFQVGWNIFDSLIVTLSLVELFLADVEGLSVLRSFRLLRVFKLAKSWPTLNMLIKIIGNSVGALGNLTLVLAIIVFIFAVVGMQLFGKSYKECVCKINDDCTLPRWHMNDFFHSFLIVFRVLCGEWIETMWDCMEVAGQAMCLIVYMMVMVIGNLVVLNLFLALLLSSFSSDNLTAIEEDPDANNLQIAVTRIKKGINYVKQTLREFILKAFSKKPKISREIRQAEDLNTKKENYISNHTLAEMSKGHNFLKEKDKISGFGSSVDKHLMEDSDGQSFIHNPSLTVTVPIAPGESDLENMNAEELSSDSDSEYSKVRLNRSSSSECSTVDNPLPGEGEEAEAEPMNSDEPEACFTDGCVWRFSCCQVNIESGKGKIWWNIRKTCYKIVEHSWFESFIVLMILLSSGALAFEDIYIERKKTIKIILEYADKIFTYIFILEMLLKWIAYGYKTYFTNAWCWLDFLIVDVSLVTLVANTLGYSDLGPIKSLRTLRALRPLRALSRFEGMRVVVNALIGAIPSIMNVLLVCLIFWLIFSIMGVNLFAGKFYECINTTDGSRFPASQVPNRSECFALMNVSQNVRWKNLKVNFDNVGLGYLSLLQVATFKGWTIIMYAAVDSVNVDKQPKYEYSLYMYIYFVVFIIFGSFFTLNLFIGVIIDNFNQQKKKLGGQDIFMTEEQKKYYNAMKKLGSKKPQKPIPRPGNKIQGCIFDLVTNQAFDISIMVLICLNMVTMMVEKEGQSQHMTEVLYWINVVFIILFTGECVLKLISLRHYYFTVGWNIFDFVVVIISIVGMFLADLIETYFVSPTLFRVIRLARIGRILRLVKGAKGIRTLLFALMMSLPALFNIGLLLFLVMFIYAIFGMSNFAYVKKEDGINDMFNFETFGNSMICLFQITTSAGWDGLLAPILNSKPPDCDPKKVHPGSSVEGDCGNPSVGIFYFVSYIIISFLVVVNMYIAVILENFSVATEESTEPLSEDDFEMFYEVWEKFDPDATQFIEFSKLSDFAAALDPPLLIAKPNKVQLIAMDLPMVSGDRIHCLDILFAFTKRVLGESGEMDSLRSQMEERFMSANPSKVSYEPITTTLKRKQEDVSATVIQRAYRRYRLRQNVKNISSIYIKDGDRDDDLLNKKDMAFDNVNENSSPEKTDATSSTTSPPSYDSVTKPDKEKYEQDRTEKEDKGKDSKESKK
human Nav1.7, sequence (Q15858 whole entry): as above

## COc1cc(C#CC2CCCC2)ccc1-n1c(=O)ccc2cc(S(=O)(=O)Nc3ccon3)ccc21 (atropisomer, axis not shown; (P)) [Example 3, (P)-1-(4-(cyclopentylethynyl)-2-methoxyphenyl)-N-(isoxazol-3-yl)-2-oxo-1,2-dihydroquinoline-6-sulfonamide]
[1]
  IC50: 7.5 nM
[2]
  IC50: 49.7 nM
[3]
  RLM in vitro: 39 µL/min/mg
[4]
  human PXR @ 2 uM POCS: −1.44%

## COc1cc(C#C[C@@H]2C[C@@H]2C(F)(F)F)c(F)cc1-n1c(=O)ccc2cc(S(=O)(=O)Nc3ccon3)ccc21 (single isomer, unassigned) [Example 4A]
[1]
  IC50: 6.8 nM
[3]
  RLM in vitro: <14.0 µL/min/mg
[4]
  human PXR @ 2 uM POCS: 23.19%

## COc1cc(C#CC2CCCC(F)(F)C2)c(F)cc1-n1c(=O)ccc2cc(S(=O)(=O)Nc3ccon3)ccc21 (racemic) [Example 7, (P) 1-(4-((3,3-difluorocyclohexyl)ethynyl)-5-fluoro-2-methoxyphenyl)-N-(isoxazol-3-yl)-2-oxo-1,2-dihydroquinoline-6-sulfonamide]
[1]
  IC50: 7.8 nM

## COc1cc(C#C[C@H]2C[C@@H]2C(F)(F)F)c(F)cc1-n1c(=O)ccc2cc(S(=O)(=O)Nc3ccon3)ccc21 (atropisomer, axis not shown; (P)) [Example 4, (P)-1-(5-fluoro-2-methoxy-4-((2-(trifluoromethyl)cyclopropyl)ethynyl)phenyl)-N-(isoxazol-3-yl)-2-oxo-1,2-dihydroquinoline-6-sulfonamide]
[3]
  RLM in vitro: <14.0 µL/min/mg
[4]
  human PXR @ 2 uM POCS: 13.54%

## COc1cc(C#CC2CCCC2)c(F)cc1-n1c(=O)ccc2cc(S(=O)(=O)Nc3ccon3)ccc21 (atropisomer, axis not shown; (P)) [Example 10, (P)-1-(4-(cyclopentylethynyl)-5-fluoro-2-methoxyphenyl)-N-3-isoxazolyl-2-oxo-1,2-dihydro-6-quinoline Sulfonamide]
[3]
  RLM in vitro: 39.8 µL/min/mg
[4]
  human PXR @ 2 uM POCS: 2.94%

## COc1cc(C#CC2CCCC2)c(F)cc1-n1c(=O)ccc2cc(S(=O)(=O)Nc3cccnn3)ccc21 [Example 9]
[1]
  IC50: 8.95 nM
[2]
  IC50: 19.3 nM
[3]
  RLM in vitro: 32.2 µL/min/mg
[4]
  human PXR @ 2 uM POCS: 11.80%

## COc1cc(C#CC2(C(F)(F)F)CC2)c(F)cc1-n1c(=O)ccc2cc(S(=O)(=O)Nc3ccon3)ccc21 (atropisomer, axis not shown; (P)) [Example 5, (P)-1-(5-fluoro-2-methoxy-4-((1-(trifluoromethyl)cyclopropyl)ethynyl)phenyl)-N-(isoxazol-3-yl)-2-oxo-1,2-dihydroquinoline-6-sulfonamide]
[3]
  RLM in vitro: <14.0 µL/min/mg
[4]
  human PXR @ 2 uM POCS: 1.73%

## COc1cc(C#CC2CCCC(F)(F)C2)c(F)cc1-n1c(=O)ccc2cc(S(=O)(=O)Nc3ccon3)ccc21 (atropisomer, axis not shown; (P)) [Example 7, (P) 1-(4-((3,3-difluorocyclohexyl)ethynyl)-5-fluoro-2-methoxyphenyl)-N-(isoxazol-3-yl)-2-oxo-1,2-dihydroquinoline-6-sulfonamide]
[3]
  RLM in vitro: <14.0 µL/min/mg
[4]
  human PXR @ 2 uM POCS: −0.78%

## COc1cc(C#CC2CCCC2)c(Cl)cc1-n1c(=O)ccc2cc(S(=O)(=O)Nc3ccon3)ccc21 (atropisomer, axis not shown; (P)) [Example 6, (P)-1-(5-chloro-4-(cyclopentylethynyl)-2-methoxyphenyl)-N-(isoxazol-3-yl)-2-oxo-1,2-dihydroquinoline-6-sulfonamide]
[3]
  RLM in vitro: 58 µL/min/mg
[4]
  human PXR @ 2 uM POCS: −3.96%

## COc1cc(C#C[C@@H]2C[C@H]2C(F)(F)F)c(F)cc1-n1c(=O)ccc2cc(S(=O)(=O)Nc3ccon3)ccc21 (stereo in doubt) [Example 4B, 1-(5-fluoro-2-methoxy-4-(((1R,2R)-2-(trifluoromethyl)cyclopropyl)ethynyl)phenyl)-N-3-isoxazolyl-2-oxo-1,2-dihydro-6-quinolinesulfonamide]
[1]
  IC50: 5.5 nM
[3]
  RLM in vitro: <14.0 µL/min/mg
[4]
  human PXR @ 2 uM POCS: −3.81%

## COc1cc(C#CC(C)(C)C(F)(F)F)c(F)cc1-n1c(=O)ccc2cc(S(=O)(=O)Nc3ccon3)ccc21 (atropisomer, axis not shown; (P)) [Example 2, (P)-1-(5-fluoro-2-methoxy-4-(4,4,4-trifluoro-3,3-dimethylbut-1-yn-1-yl)phenyl)-N-(isoxazol-3-yl)-2-oxo-1,2-dihydroquinoline-6-sulfonamide]
[1]
  IC50: 1.2 nM
[3]
  RLM in vitro: <14.0 µL/min/mg
[4]
  human PXR @ 2 uM POCS: 1.38%

## COc1cc(C#CC2CCC(F)(F)CC2)c(F)cc1-n1c(=O)ccc2cc(S(=O)(=O)Nc3ccon3)ccc21 (atropisomer, axis not shown; (P)) [Example 1, (P)-1-(4-((4,4-difluorocyclohexyl)ethynyl)-5-fluoro-2-methoxyphenyl)-N-(isoxazol-3-yl)-2-oxo-1,2-dihydroquinoline-6-sulfonamide]
[1]
  IC50: 3.3 nM
[3]
  RLM in vitro: <14.0 µL/min/mg
[4]
  human PXR @ 2 uM POCS: 2.36%

## COc1cc(C#C[C@H]2C[C@@H]2C(F)(F)F)c(F)cc1-n1c(=O)ccc2cc(S(=O)(=O)Nc3ccon3)ccc21 (stereo in doubt) [Example 4, (P)-1-(5-fluoro-2-methoxy-4-((2-(trifluoromethyl)cyclopropyl)ethynyl)phenyl)-N-(isoxazol-3-yl)-2-oxo-1,2-dihydroquinoline-6-sulfonamide]
[1]
  IC50: 7 nM
